PubChem BioAssay AID1996
In brackets after ≈: the same amount, converted by molar mass.

Details: buffer; pH 7.4; 200.0 µM

Structure (SMILES)	solubility kinetic [µg/mL]
CCOC(=O)C(=O)N1CCC(C(=O)OCC)CC1	> 38.6
CN(C)c1ccc(/C=C/C(=O)c2cccnc2)cc1	9.5 (≈ 37.7 µM)
O=C(CCNC(=O)c1ccccc1)NCCc1ccc(Cl)cc1	6.9 (≈ 20.9 µM)
Cc1cc(C)cc(NC(=O)N2C3CCCC2CC(NC(=O)C2CC2)C3)c1 (centres undefined)	1.6 (≈ 4.5 µM)
CC(C)N1C(=O)CCC1C(=O)NCc1ccc(F)cc1Cl (centres undefined)	> 46.9
Cc1cc2occ(CC(=O)NC3(C)CCS(=O)(=O)C3)c2cc1C (centres undefined)	> 50.3
CCOCCCNCc1cc(Cl)ccc1OCC.Cl	> 46.2
CC(=O)c1cccc(NC(=O)c2ccc3c(c2)OCO3)c1	2.2 (≈ 7.77 µM)
O=C(CSc1ccc(-c2ccc(F)cc2)nn1)N1CCOCC1	> 50
Cc1ccccc1C(=O)Nc1ccc(S(=O)(=O)Nc2onc(C)c2C)cc1	50.5 (≈ 131 µM)
O=C1c2ccccc2CN1C(CO)c1ccccc1 (centres undefined)	34.7 (≈ 137 µM)
CC(C)=CC(=O)Nc1cccc(S(=O)(=O)NC2=NCCCCC2)c1	> 52.4
O=S(=O)(Nc1ccc(Cl)c(Cl)c1)N1CCOCC1	> 46.7
Cc1ccnc(Nc2nc(-c3ccc(F)cc3)cs2)c1	< 0.2
CC(C)NC(=O)c1ccc(S(=O)(=O)N(C)C)cc1	> 40.6
O=C1OCC(c2ccccc2)=C1c1ccccc1[N+](=O)[O-]	> 42.2
CC(=O)Nc1nc(-c2cc([N+](=O)[O-])cs2)cs1	0.7 (≈ 2.6 µM)
C=CCn1c(O)c(C(CC)=Nc2ccc(N(C)C)cc2)c(=O)[nH]c1=O	1.5 (≈ 4.38 µM)
CCC(=O)Nc1ccc(Cl)c(-c2nc3ncccc3o2)c1	> 45.3
Cc1ccc2nc(NC(=O)C3CC3C)sc2c1 (centres undefined)	2.4 (≈ 9.74 µM)

Structure (SMILES)	solubility kinetic [µg/mL]
Cc1ccccc1N1CC(C(=O)N2CC(C)OC(C)C2)CC1=O (centres undefined)	47.1 (≈ 149 µM)
O=S(=O)(NCCc1c[nH]c2ccccc12)c1ccccc1	> 45.1
CCn1c(NCCO)nc2c(c1=O)C(C)(CC)Cc1ccccc1-2 (centres undefined)	12.8 (≈ 39.1 µM)
Cc1ccc(Nc2nc(N)c(C#N)c(CC#N)c2C#N)cc1	1.6 (≈ 5.55 µM)
O=C(CSCc1ccccc1)Nc1ccc(F)cc1F	41 (≈ 140 µM)
COc1ccc2cc(C(=O)N3CCN(c4ccccc4F)CC3)[nH]c2c1	1.9 (≈ 5.38 µM)
CC(C)(C)NS(=O)(=O)c1ccc(/C=C/C(=O)O)cc1	> 42.5
CC(=O)Nc1ccc(S(=O)(=O)N(C)CC(=O)NC2CCCCCCC2)cc1	> 59.3
COc1cccc(-n2c(SCc3ccccn3)nc3c(c2=O)SCC3)c1	54.1 (≈ 141 µM)
O=CN1CCN(C(=O)c2ccc(Br)o2)CC1	> 43.1
Cc1ccccc1CC(=O)NCC1CCCCC1	12.9 (≈ 52.6 µM)
CCCCN(C)C(=O)C1CCN(Cc2cccnc2)CC1	> 43.4
COc1ccc(NC(=O)c2ccccc2C)cc1	27.1 (≈ 112 µM)
CN(Cc1ccc(F)cc1)Cc1nc(CCc2ccccc2)no1	5.7 (≈ 17.5 µM)
Cc1ccc(O)c(NC(=S)NC(=O)Cc2ccc(Cl)cc2)c1	1.3 (≈ 3.88 µM)
Cc1nc([N+](=O)[O-])cn1CC(=O)c1ccc(F)cc1	> 39.5
Cc1cccc(C)c1N1CCN(c2c(C)cccc2C)CC1	< 0.3
CCCC(=O)N(Cc1cc(=O)[nH]c2ccccc12)c1ccc(OC)cc1	> 52.6
Cc1cc2cc(OCc3ccccc3)ccc2n1C	< 0.5
COc1ccccc1NC(=O)O/N=C(\N)c1ccccc1	> 42.8

Structure (SMILES)	solubility kinetic [µg/mL]
CC(C)CCNC(=O)c1ccc2c(Cl)c3c(nc2c1)CCC3	0.5 (≈ 1.58 µM)
CC(NC(=O)Nc1ccc(Cl)cc1)c1ccc2c(c1)OCO2 (centres undefined)	2.8 (≈ 8.78 µM)
NC(=O)CNC(=O)c1ccc(Cl)cc1	> 31.9
CCC1(C)Cc2ccccc2-c2nc(NCCCO)[nH]c(=O)c21 (centres undefined)	44 (≈ 140 µM)
Cc1ccc(Nc2nc(-c3cccnc3)nc3ccccc23)cc1	0.6 (≈ 1.92 µM)
CCNCc1cc([N+](=O)[O-])ccc1OCC.Cl	> 39.1
O=S(=O)(NCCC1CC1(Cl)Cl)c1ccc(Cl)cc1 (centres undefined)	45.9 (≈ 140 µM)
O=C(COc1ccccc1/C=C1\SC(=S)NC1=O)Nc1ccc(F)cc1	3 (≈ 7.72 µM)
COC(=O)c1sccc1-n1cc(C#N)c(=O)n(C)c1=O	> 43.7
Cc1ccc(C2N=C(N)Nc3nc4ccccc4n32)cc1 (centres undefined)	35 (≈ 126 µM)
O=C(Cc1ccccc1)NC(Cc1ccc(Cl)cc1)C(=O)O (centres undefined)	> 47.7
CN=C1S/C(=C\c2ccc(O)c(OC)c2)C(=O)N1C	5.9 (≈ 21.2 µM)
Cc1ccc(S(=O)(=O)N2CCOCC2)cc1NC(=O)CNCc1ccc(Cl)cc1Cl	5.4 (≈ 11.4 µM)
Cc1cccc(C)c1OC(=O)CN1C(=O)c2ccccc2C1=O	0.9 (≈ 2.91 µM)
Cc1ccc2c(c1)c(C1=c3ccccc3=NC1=O)c(O)n2C	1.1 (≈ 3.79 µM)
COc1cc2nc(CN3CCN(S(=O)(=O)c4ccccc4C(F)(F)F)CC3)[nH]c(=O)c2cc1OC	12.4 (≈ 24.2 µM)
Cc1cc(=O)oc(C)c1C(=O)NCCN(C)Cc1ccccc1	> 47.2
CCOC(=O)c1ccc(N=c2ssnc2Cl)cc1	4.8 (≈ 16 µM)
Cc1cc(C(=O)COC(=O)c2ccco2)c(C)n1Cc1ccco1	2.5 (≈ 7.64 µM)
